From US11229618B2 (Amarin Pharmaceuticals Ireland Limited, priority 2012, dated 2022)

Columns and labels:
[1] = AAMI 6-week study: essential fatty acid parameters in RBC (gas chromatography); assay type: in vivo, human; settings: RBC; Ethyl-EPA 4 g; baseline
Procedure: (§1) A single-center, 6-week, double-blind, randomizes, parallel-group, placebo-controlled, dose-ranging pilot study was performed to evaluate the efficacy, tolerability, and safety of >96% ethyl-EPA in subjects with subjective and objective memory impairment according to generally accepted criteria for Age-Associated Memory Impairment (“AAMI”). The primary objective of the study was to determine the effect of >96% ethyl-EPA 1 g, 2 g, and 4 g daily, compared to placebo, on cognitive performance in subjects with AAMI.
(§2) Ninety-four subjects were randomized into one of six groups: 1 g E-EPA daily (n=23), 2 g E-EPA daily (n=24), 4 g E-EPA daily (n=24), 1 g placebo daily (n=7), 2 g placebo daily (n=8), and 4 g placebo daily (n=8). E-EPA was provided as 500 mg soft gel capsules containing>96% E-EPA and 0.2% dl-α-tocopherol as an antioxidant. Placebo capsules contained 467 mg of liquid paraffin and 0.2% dl-α-tocopherol. Ninety-one subjects completed the study. Two subjects in the 2 g E-EPA group and one subject in the 2 g placebo group discontinued the study.
(§3) Blood samples (10 mL) were collected at Visit 1 (screening) and at Visits 4, 5 and 6. Analysis was performed by MSR Lipid Analysis, Scottish Crop Research Institute, Dundee, UK. The screening sample acted as baseline for the EFA measurements. Lipid was extracted from plasma, serum and RBC suspensions and converted into fatty acid methyl esters which were analyzed by gas chromatography to give fatty acid profiles as micrograms fatty acid per gram of sample (μgFA/g) and normalized area percent.
(§4) RBC and plasma EFA data were collected at baseline, Day 14, 28 and 42 and summarized by visit for each treatment group. Change from baseline and percent change from baseline were also summarized. ANCOVA comparison of ethyl-EPA dose groups and ethyl-EPA versus placebo was performed.

[2] = AAMI 6-week study: essential fatty acid parameters in plasma (gas chromatography); assay type: in vivo, human; settings: for AA Plasma Mean change from Baseline / DHA Plasma Mean change from Baseline / AA Plasma 1 or 2 g versus 4 g LS Mean / DHA Plasma 1 or 2 g versus 4 g LS Mean: AAMI; for AA Plasma Mean change from Baseline / DHA Plasma Mean change from Baseline: mean (SD); for DGLA 1 or 2 g versus 4 g, LS Mean / DPAn-3 1 or 2 g versus 4 g, LS Mean / EPA/AA 1 or 2 g versus 4 g, LS Mean / DGLA Mean change from Baseline, Mean (SD) / DPAn-3 Mean change from Baseline, Mean (SD) / EPA/AA Mean change from Baseline, Mean (SD) / DGLA Baseline Mean (SD) / DPAn-3 Baseline Mean (SD) / EPA/AA Baseline Mean (SD): plasma; for DPAn-3 1 or 2 g versus 4 g, LS Mean / EPA/AA 1 or 2 g versus 4 g, LS Mean: p-value <0.001
Procedure: as §1, §2, §3, §4

For `CC/C=C\C/C=C\C/C=C\C/C=C\C/C=C\CCCC(=O)OCC` [IPE, all-cis eicosa-5,8,11,14,17-pentaenoic acid ethyl ester], the “EPA/AA Baseline Mean (SD)” value [1] was 0.1 (0.04), the “AA Plasma Mean change from Baseline” value ([2]; 1 g daily, Day 14) was −9.7 (22.20) μg/g and the “DHA Plasma Mean change from Baseline” value ([2]; 1 g daily, Day 14) was −6.4 (13.30) μg/g. The “AA Plasma Mean change from Baseline” value ([2]; 1 g daily, Day 28) was −11.3 (28.13) μg/g, the “DHA Plasma Mean change from Baseline” value ([2]; 1 g daily, Day 28) was −6.6 (15.53) μg/g and the “AA Plasma Mean change from Baseline” value ([2]; 1 g daily, Day 42) was −8.7 (31.35) μg/g. For the same compound, the “DHA Plasma Mean change from Baseline” value ([2]; 1 g daily, Day 42) was −5.4 (18.17) μg/g, the “AA Plasma 1 or 2 g versus 4 g LS Mean” value ([2]; 1 g versus 4 g) was 4.2 µg/g and the “DHA Plasma 1 or 2 g versus 4 g LS Mean” value ([2]; 1 g versus 4 g) was -0.8 µg/g. The “AA Plasma Mean change from Baseline” value ([2]; 2 g daily, Day 14) was −13.9 (22.13) μg/g, the “DHA Plasma Mean change from Baseline” value ([2]; 2 g daily, Day 14) was −5.4 (14.29) μg/g and the “AA Plasma Mean change from Baseline” value ([2]; 2 g daily, Day 28) was 21.6 (28.32) μg/g. The “DHA Plasma Mean change from Baseline” value ([2]; 2 g daily, Day 28) was −8.1 (15.82) μg/g, the “AA Plasma Mean change from Baseline” value ([2]; 2 g daily, Day 42) was −27.3 (26.76) μg/g and the “DHA Plasma Mean change from Baseline” value ([2]; 2 g daily, Day 42) was −6.0 (16.69) μg/g. For the same compound, the “AA Plasma 1 or 2 g versus 4 g LS Mean” value ([2]; 2 g versus 4 g) was 15.6 µg/g, the “DHA Plasma 1 or 2 g versus 4 g LS Mean” value ([2]; 2 g versus 4 g) was 1.5 µg/g and the “AA Plasma Mean change from Baseline” value ([2]; 4 g daily, Day 14) was −27.2 (28.89) μg/g. The “DHA Plasma Mean change from Baseline” value ([2]; 4 g daily, Day 14) was −10.3 (13.35) μg/g, the “AA Plasma Mean change from Baseline” value ([2]; 4 g daily, Day 28) was −43.7 (32.24) μg/g and the “DHA Plasma Mean change from Baseline” value ([2]; 4 g daily, Day 28) was −13.5 (14.10) μg/g. For the same compound, the “AA Plasma Mean change from Baseline” value ([2]; 4 g daily, Day 42) was −48.3 (22.20) μg/g, the “DHA Plasma Mean change from Baseline” value ([2]; 4 g daily, Day 42) was −13.8 (15.31) μg/g and the “DGLA 1 or 2 g versus 4 g, LS Mean” value ([2]; Ethyl-EPA 1 g versus 4 g, p-value 0.028) was 3.7 µg/g. The “DPAn-3 1 or 2 g versus 4 g, LS Mean” value ([2]; Ethyl-EPA 1 g versus 4 g) was -15.1 µg/g, the “EPA/AA 1 or 2 g versus 4 g, LS Mean” value ([2]; Ethyl-EPA 1 g versus 4 g) was −0.66 and the “DGLA Mean change from Baseline, Mean (SD)” value (“DGLA Mean change … (SD)” for short) ([2]; Ethyl-EPA 1 g, Day 14) was −10.4 (10.90) μg/g. The “DPAn-3 Mean change from Baseline, Mean (SD)” value (“DPAn-3 Mean change … (SD)” for short) ([2]; Ethyl-EPA 1 g, Day 14) was 7.5 (5.11) μg/g, the “EPA/AA Mean change from Baseline, Mean (SD)” value (“EPA/AA Mean change … (SD)” below) ([2]; Ethyl-EPA 1 g, Day 14) was 0.3 (0.4) and the “DGLA Mean change … (SD)” value ([2]; Ethyl-EPA 1 g, Day 28) was −10.6 (10.23) μg/g. The “DPAn-3 Mean change … (SD)” value ([2]; Ethyl-EPA 1 g, Day 28) was 8.9 (5.62) μg/g, the “EPA/AA Mean change … (SD)” value ([2]; Ethyl-EPA 1 g, Day 28) was 0.3 (0.20) and the “DGLA Mean change … (SD)” value ([2]; Ethyl-EPA 1 g, Day 42) was −9.4 (9.41) μg/g. For the same compound, the “DPAn-3 Mean change … (SD)” value ([2]; Ethyl-EPA 1 g, Day 42) was 11.3 (6.61) μg/g, the “EPA/AA Mean change … (SD)” value ([2]; Ethyl-EPA 1 g, Day 42) was 0.3 (0.24) and the “DGLA Baseline Mean (SD)” value ([2]; Ethyl-EPA 1 g) was 51.2 (15.01) μg/g. For the same compound, the “DPAn-3 Baseline Mean (SD)” value ([2]; Ethyl-EPA 1 g) was 21.1 (6.62) μg/g, the “EPA/AA Baseline Mean (SD)” value ([2]; Ethyl-EPA 1 g) was 0.2 (0.14) and the “DGLA 1 or 2 g versus 4 g, LS Mean” value ([2]; Ethyl-EPA 2 g versus 4 g, p-value 0.143) was 2.5 µg/g. The “DPAn-3 1 or 2 g versus 4 g, LS Mean” value ([2]; Ethyl-EPA 2 g versus 4 g) was -9.5 µg/g, the “EPA/AA 1 or 2 g versus 4 g, LS Mean” value ([2]; Ethyl-EPA 2 g versus 4 g) was −0.41 and the “DGLA Mean change … (SD)” value ([2]; Ethyl-EPA 2 g, Day 14) was −14.1 (6.88) μg/g. The “DPAn-3 Mean change … (SD)” value ([2]; Ethyl-EPA 2 g, Day 14) was 17.4 (7.49) μg/g, the “EPA/AA Mean change … (SD)” value ([2]; Ethyl-EPA 2 g, Day 14) was 0.6 (0.23) and the “DGLA Mean change … (SD)” value ([2]; Ethyl-EPA 2 g, Day 28) was −16.2 (9.88) μg/g. The “DPAn-3 Mean change … (SD)” value ([2]; Ethyl-EPA 2 g, Day 28) was 19.4 (8.48) μg/g, the “EPA/AA Mean change … (SD)” value ([2]; Ethyl-EPA 2 g, Day 28) was 0.8 (0.35) and the “DPAn-3 Mean change … (SD)” value ([2]; Ethyl-EPA 2 g, Day 42) was 19.3 (8.63) μg/g. The “EPA/AA Mean change … (SD)” value ([2]; Ethyl-EPA 2 g, Day 42) was 0.7 (0.29), the “DGLA Baseline Mean (SD)” value ([2]; Ethyl-EPA 2 g) was 53.5 (14.12) μg/g and the “DPAn-3 Baseline Mean (SD)” value ([2]; Ethyl-EPA 2 g) was 19.7 (4.50) μg/g. For the same compound, the “EPA/AA Baseline Mean (SD)” value ([2]; Ethyl-EPA 2 g) was 0.2 (0.12), the “DGLA Mean change … (SD)” value ([2]; Ethyl-EPA 4 g, Day 14) was −22.9 (9.00) μg/g and the “DPAn-3 Mean change … (SD)” value ([2]; Ethyl-EPA 4 g, Day 14) was 24.5 (11.28) μg/g. For the same compound, the “EPA/AA Mean change … (SD)” value ([2]; Ethyl-EPA 4 g, Day 14) was 1.1 (0.28), the “DGLA Mean change … (SD)” value ([2]; Ethyl-EPA 4 g, Day 28) was −24.2 (10.73) μg/g and the “DPAn-3 Mean change … (SD)” value ([2]; Ethyl-EPA 4 g, Day 28) was 29.7 (13.23) μg/g. For the same compound, the “EPA/AA Mean change … (SD)” value ([2]; Ethyl-EPA 4 g, Day 28) was 1.3 (0.42), the “DGLA Mean change … (SD)” value ([2]; Ethyl-EPA 4 g, Day 42) was −22.5 (10.87) μg/g and the “DPAn-3 Mean change … (SD)” value ([2]; Ethyl-EPA 4 g, Day 42) was 32.0 (16.01) μg/g. The “EPA/AA Mean change … (SD)” value ([2]; Ethyl-EPA 4 g, Day 42) was 1.3 (0.45), the “DGLA Baseline Mean (SD)” value ([2]; Ethyl-EPA 4 g) was 57.1 (14.73) μg/g and the “DPAn-3 Baseline Mean (SD)” value ([2]; Ethyl-EPA 4 g) was 21.7 (4.69) μg/g. For the same compound, the “EPA/AA Baseline Mean (SD)” value ([2]; Ethyl-EPA 4 g) was 0.2 (0.07).
